# Experimental data taken from patent publication US9211349B2, “Molecular probes for multimodality imaging of anionic membrane surfaces” (Molecular Targeting Technologies, Inc., priority 2012, dated 2015).
# pIC50: −log10 of the molar value.
# Tested on: U87MG cells
# Assay: MTT assay, cytotoxicity of paclitaxel on U87MG cells
# Type: cell-based, human
# Method: A U87MG human glioblastoma cell line was obtained from the American Type Culture Collection (Manassas, Va., USA). U87MG glioma cells were grown in Dulbecco's modified medium (USC Cell Culture Core, Los Angeles, Calif., USA) supplemented with 10% fetal bovine serum at 37° C. in humidified atmosphere containing 5% CO2.
# The toxicity of paclitaxel to U87MG cells was determined by a colorimetric assay with 3-(4,5-dimethylthiazol-2-yl)-2,5-diphenyl tetrazolium bromide (MTT; Alfa Aesar). All studies were performed with triplicate samples and repeated at least three times. Briefly, cells were harvested by trypsinization, resuspended in Dulbecco's modified medium, and plated in a 96-well plate at 4,000 cells per well. After treatment with different doses of paclitaxel (ranging from 1 nM to 500 nM) for 16 hours, 22 μL of 0.5 mg/mL sterile filtered MTT was added to each well. The un-reacted dye was removed after 4 hours of incubation, and the insoluble formazan crystals were dissolved in 150 μL of DMSO. The absorbance at 490 nm was measured with a microplate reader (SpectraMax M2e, Molecular Devices, CA).
# FIG. 3 is a graph illustrating cytotoxicity of paclitaxel on U87MG cells determined by MTT assay. The best-fit 50% inhibitory concentration (IC50) values were calculated by fitting the data with nonlinear regression using Graph-Pad Prism 5.0 (Graph-Pad Software, San Diego, Calif.).
smiles,measurement,setting,value
CC(=O)O[C@H]1C(=O)[C@@]2(C)[C@H]([C@H](OC(=O)c3ccccc3)[C@]3(O)C[C@H](OC(=O)[C@H](O)[C@@H](NC(=O)c4ccccc4)c4ccccc4)C(C)=C1C3(C)C)[C@]1(OC(C)=O)CO[C@@H]1C[C@@H]2O [paclitaxel],sensitivity of U87MG cells to treatment,"1 nM to 500 nM, 16 hours",sensitive
same,pIC50,"Homo sapiens, U-87 MG, after 16 hours of incubation",7.21
